Here are results for six compounds from patent US20180050018A1, “PERIPHERAL-ANTICHOLINERGIC MUSCARINIC AGONIST COMBINATION” (Chase Pharmaceuticals Corporation, priority 2015, published 2018).

For series [1] the following is noted: oral and iontophoretic patch administration, with oxadiazole muscarinic agonists; cited from earlier work.
For series [2], the system named is rats and monkeys. To be noted: rats and monkeys (Schwarz 1999); cited from earlier work.
Series [3] has as its system Male Swiss mice. Nature of the series: Antagonism of xanomeline-induced diarrhea in mice by oxybutynin (fecal pellet count). The class given is in vivo. To be noted: oxybutynin i.p. 0.3 to 30 mg/kg, 30 minutes before xanomeline 30 mg/kg. How it is done: Male Swiss mice (4-6 weeks old), N=10 per treatment group were used. Animals were pretreated with i.p. oxybutynin (a representative peripheral muscarinic receptor antagonist) or vehicle; 30 minutes later animals were treated with xanomeline at a dose of 30 mg/kg that caused diarrhea (as determined in Experiment 1). The dose of oxybutynin ordinarily ranged from 0.3 to 30 mg/kg. Mice were placed individually in cages without any bedding materials. During the experiment the number of fecal pellets was counted at different time-points as outlined below: • T-1h to T0: counting of the accumulated fecal pellets excreted, • T0: administration of oxybutinin. • T30 min: administration of vehicle or xanomeline. • T 30 min to T 2.5 h: counting of accumulated fecal pellets excreted. • T+2.5 h to T+4.5 h: counting of accumulated fecal pellets excreted. The total number of fecal pellets for each mouse was counted over time. An analysis of variance (ANOVA) was performed on the results. Fisher's Protected Least Significant Difference was used for pairwise comparisons. The p value ≦0.05 were considered significant. Grubbs' test (http (hypertext transfer protocol) www at graphpad.com/quickcalcs/Grubbs1.cfm) was used to detect outliers for each parameter in each experimental group.

For series [4], the system named is Male Swiss mice. Nature of the series: T-maze continuous alternation task (T-CAT) in mice. The class given is in vivo. The text has this:
Evaluation of Cognition with Oxybutynin and Xanomeline in the T-maze Alternation Task in Mice The T-maze continuous alternation task (T-CAT) is useful as model for studying compounds with cognitive enhancing properties. The T-maze consists of 2 choice arms and 1 start arm mounted to a square center. Manual doors are provided to close specific arms during the force choice alternation task. Male Swiss mice (4-6 weeks old), N=10 per treatment group were used, and were pre-treated with: • Oxybutynin at the dose that blocked fecal pellet excretion in Study 2 of Example 1. […] Mice were randomly assigned to one of the different experimental treatment groups. Each animal was identified by its group name, cage number, series (day) of experiment, and number (1 to 10) written with permanent ink on the tail. The T-maze apparatus is made of gray Plexiglas with a main stem (55 cm long×10 cm wide×20 cm high) and two arms (30 cm long×10 cm wide×20 cm high) positioned at 90 degree angle relative to the main stem. A start box (15 cm long×10 cm wide) is separated from the main stem by a guillotine door. Horizontal doors are also provided to close specific arms during the force choice alternation task.
The experimental protocol consisted of one single session, which started with 1 “forced-choice” trial, followed by 14 “free-choice” trials. In the first “forced-choice” trial, animals were confined for 5 seconds to the start arm and then were released while either the left or the right goal arm was blocked by the horizontal door. Animals then negotiated the maze, eventually entering the open goal arm, and returned to the start position. […]
The apparatus was cleaned between each animal using 40% ethanol. […] The percentage of alternation over the 14 free-choice trials was determined for each mouse and was used as an index of working memory performance. […] The drug-induced improvement of memory was calculated by setting the respective response of the saline/vehicle as 100% and that of the test group as 0% reversion. […]

The conditions of series [5]: cited from earlier work.
For series [6], the system named is Male Swiss mice. Nature of the series: Dose-response to xanomeline in a mouse model of diarrhea (fecal pellet count). Type of series: in vivo. The note with it: xanomeline i.p. 0.3 to 30 mg/kg. The text has this: Male Swiss mice (4-6 weeks old), N=10 per treatment group were used, and treated intra-peritoneally (i.p.) with either vehicle (vehicle group) or increasing doses of xanomeline, a representative muscarinic agonist. Mice were randomly assigned to one of two experimental groups (vehicle; or increasing doses of xanomeline). Each animal was identified by its group name, cage number, series (day) of experiment, and number (1 to 10) written with permanent ink on the tail. Mice were placed individually in cages without any bedding materials. During the experiment the number of fecal pellets were counted at different time-points, starting one hour before the time of the administration of the test compound (TO), as outlined below: • T-1 h to T0: counting of the accumulated fecal pellets excreted. • T0: administration of the test compound, • T0 to T+2 h: counting of the accumulated fecal pellets excreted, • T+2 h to T+4 h: counting of the accumulated fecal pellets excreted, The total number of fecal pellets for each mouse was counted over time. An analysis of variance (ANOVA) was performed on the results. Fisher's Protected Least Significant Difference was used for pairwise comparisons; p values <0.05 were considered significant. Grubbs' test (http (hypertext transfer protocol) www at graphpad.com/quickcalcs/Grubbs1.cfm) was used to detect outliers for each parameter in each experimental group.

The subject of series [7] is patients with Alzheimer disease. The note with it: cited from earlier work.

Turning to `NC(=O)C(c1ccccc1)(c1ccccc1)[C@@H]1CCN(CCc2ccc3c(c2)CCO3)C1` [darifenacin], the “effectiveness relative to the other muscarinic antagonists” value in series [1] is “less effective than the other muscarinic antagonists”.
On to `CO/N=C/C1=CCCN(C)C1` [milameline, (E)-N-methoxy-1-(1-methyl-1,2,5,6-tetrahydropyridin-3-yl)methanimine], for which, in series [2], the “doses producing central cholinergic action relative to doses stimulating peripheral cholinergic receptors” value is on record as “doses slightly lower than those stimulating peripheral cholinergic receptors”.
For `CCN(CC)CC#CCOC(=O)C(O)(c1ccccc1)C1CCCCC1` (stereo not shown) [oxybutynin], the “effectiveness relative to the other muscarinic antagonists” value in series [1] is listed as “less effective than the other muscarinic antagonists”. The “antagonism of xanomeline-induced diarrhea” value in series [3] is on record as “dose-dependently antagonized the diarrhea induced by xanomeline”. Moreover, the “ability to perform the T-maze test after pretreatment” value in series [4] (i.p. oxybutynin pretreatment 30 minutes before xanomeline) was “restored the animals' ability to perform the T-maze test”.
Consider `O=C(O[C@H]1CN2CCC1CC2)N1CCc2ccccc2[C@@H]1c1ccccc1` [solifenacin succinate, (1S)-(3R)-1-azabicyclo [2.2.2] oct-3-yl 3,4-dihydro-1-phenyl-2(1H)-iso-quinolinecarboxylate], for which the “half-life (in words)” value in series [5] (in vivo) is on record as “long half-life”.
As to `O=C(O[C@H]1C[C@H]2CC[C@@H](C1)[N+]21CCCC1)C(O)(c1ccccc1)c1ccccc1` [trospium chloride, Azoniaspiro [3β-benziloyloxy-(1α,5α)-nortropane-8,1′-pyrrolidine] chloride], the average plasma half-life entry in series [5] (absorbed amount) is “about 18 hours”.
In the case of `CCCCCCOc1nsnc1C1=CCCN(C)C1` [xanomeline, 3-(4-hexyloxy-1,2,5-thiadiazol-3-yl)-1-methyl-5,6-dihydro-2H-pyridine], the “diarrhea (number of fecal pellets excreted)” value in series [6] is listed as “dose-dependently causes diarrhea”. Further, the “cognitive and behavioral symptoms compared to placebo” value in series [7] (6-month trial in Alzheimer disease patients (Bodick et al, 1997)) was “significantly improve cognitive and behavioral symptoms of Alzheimer disease”. The “discontinuation rate due to side effects” value in series [7] (Alzheimer's patient population (Mirza et al. 2003)) is “higher than 50%”. Besides, the side effects result in series [7] (bradycardia, gastro-intestinal distress, excessive salivation, sweating, Alzheimer disease patients) is reported as “dose-dependent unacceptable side effects”. For the same compound, in series [4] (i.p. xanomeline, higher dose (dose that caused diarrhea)), the “ability to perform the T-maze test at the higher dose” value was “animals were too sick to perform the test”. In addition, the “performance in the T-maze (percentage of alternation, working memory)” value in series [4] (i.p. xanomeline, mice) is on record as “dose-dependent increase in performance in the T-maze”.
